Reference: publication PMC8901636, “Preclinical studies of Flonoltinib Maleate, a novel JAK2/FLT3 inhibitor, in treatment of JAK2^V617F-induced myeloproliferative neoplasms” (Blood Cancer Journal, 2022)
Read-outs that look alike come from different tables or passages of the source.

Experiments:
JAK1/TYK2 pathway = test: Cytokine-stimulated cell-based assay, IFN-α-induced p-STAT1; conditions: western blotting
JAK1/JAK2 = test: Cytokine-stimulated cell-based assay, G-CSF-induced p-STAT3 in HEL cells; conditions: Homo sapiens
Text: To further determine the selectivity of FM to inhibit different JAK isotypes in cell lines, we performed a series of cytokine-stimulated cell-based assays and assessed the signal transduction of JAK subtypes.
(A) Inhibition of cytokine induced JAK auto-phosphorylation by FM in HEL cell lines. Raw data about HEL (B) and Ba/F3-JAK2^V617F (C) cells were supplemented with different concentrations of FM for cell cycle analysis. […] (F) p-FLT3, p-STAT5, and p-ERK in Molm-13 cell line were also assessed after 3 hours exposure with increasing concentrations of FM.

Ba/F3-JAK2^V617F = test: MTT assay for cell proliferation; type: cell-based, Murine; conditions: Mus musculus, 72 h, read-out: IC50(μM) ± SD, tumor cell proliferation
Procedure: (§1) For in vitro inhibition assays, cells were seeded in 96-well culture plates with a density of 15,000–20,000 cells/well after the cells reached 70–90% confluence. […] MTT (3-(4, 5-dimethylthiazol-2-yl)-2, 5-diphenyltetrazolium bromide) (Cat. No. 1334GR001; BioFroxx) assay was conducted in order to examine viability. The IC50 values were fitted using GraphPad Prism 7.0.

Ba/F3-EPOR-JAK2^V617F = test: MTT assay for cell proliferation; type: cell-based, Murine; conditions: Mus musculus
Procedure: as §1

MV-4-11 = test: MTT assay for cell proliferation; type: cell-based; conditions: Homo sapiens, MV4-11, 72 h, read-out: IC50(μM) ± SD, tumor cell proliferation
Procedure: as §1

Molm-13 = test: MTT assay for cell proliferation; type: cell-based; conditions: Homo sapiens, MOLM-13, 72 h, read-out: IC50(μM) ± SD, tumor cell proliferation
Procedure: as §1

Ba/F3-FLT3-ITD = test: MTT assay for cell proliferation; type: cell-based, Murine; conditions: Mus musculus, Ba/F3 FLT3-ITD, 72 h, read-out: IC50(μM) ± SD, tumor cell proliferation
Procedure: as §1

JAK2^V617F = JAK2^V617F bone marrow transplantation (BMT) myelofibrosis model; type: in vivo, BALB/c mice; conditions: for inhibition of splenomegaly: figure prints it with a minus sign over Spleen Wight (mg); for median survival time: vehicle 133.5 days; for BM Reticulin, fibrosis grade: bone marrow, WHO grading, vehicle MF-2
[1] = PK and tissue distribution after repeated oral administration in Ba/F3-EPOR-JAK2^V617F tumor-bearing mice; type: in vivo; conditions: for Kp: spleen and plasma, po
CD34^+ cells = test: CD34+ cells in peripheral blood of normal mice; type: in vivo; conditions: normal BALB/c mice; 30 mg/kg p.o. twice a day; Day 0-21
Procedure: To further understand the effect of FM on normal mice and normal human CD34^+ cells, we conducted a further analysis on CD34^+ cells. For normal mice, we measured the proportion of CD34^+ in the peripheral blood of BALB/c mice on Day 0, and then mice were treated with FM 30 mg/kg p.o. twice a day. […] To investigate the effect of FM on normal human CD34^+ cells, we collected mononuclear cells of PB acquired from healthy donors. […] Therefore, in the future phase I clinical trials, we should examine the myelosuppressive effects of FM in patients with MPN.
(A) Normal BALB/c mice were treated with vehicle and FM 30mg/kg p.o. twice a day. FACS analysis of the percentage of CD34^+ cells on Day 0, 7, 14 and 21 (n = 7). (B) Mononuclear cells were isolated from the PB of healthy donors and CD34^+ cells were analyzed after incubated with FM after 48h.

JAK1 = JAK1 (Homo sapiens, UniProt P23458); test: In vitro kinase assay; conditions: read-out: JAK1 Enzyme IC50
Sequence of JAK1 (P23458 whole entry): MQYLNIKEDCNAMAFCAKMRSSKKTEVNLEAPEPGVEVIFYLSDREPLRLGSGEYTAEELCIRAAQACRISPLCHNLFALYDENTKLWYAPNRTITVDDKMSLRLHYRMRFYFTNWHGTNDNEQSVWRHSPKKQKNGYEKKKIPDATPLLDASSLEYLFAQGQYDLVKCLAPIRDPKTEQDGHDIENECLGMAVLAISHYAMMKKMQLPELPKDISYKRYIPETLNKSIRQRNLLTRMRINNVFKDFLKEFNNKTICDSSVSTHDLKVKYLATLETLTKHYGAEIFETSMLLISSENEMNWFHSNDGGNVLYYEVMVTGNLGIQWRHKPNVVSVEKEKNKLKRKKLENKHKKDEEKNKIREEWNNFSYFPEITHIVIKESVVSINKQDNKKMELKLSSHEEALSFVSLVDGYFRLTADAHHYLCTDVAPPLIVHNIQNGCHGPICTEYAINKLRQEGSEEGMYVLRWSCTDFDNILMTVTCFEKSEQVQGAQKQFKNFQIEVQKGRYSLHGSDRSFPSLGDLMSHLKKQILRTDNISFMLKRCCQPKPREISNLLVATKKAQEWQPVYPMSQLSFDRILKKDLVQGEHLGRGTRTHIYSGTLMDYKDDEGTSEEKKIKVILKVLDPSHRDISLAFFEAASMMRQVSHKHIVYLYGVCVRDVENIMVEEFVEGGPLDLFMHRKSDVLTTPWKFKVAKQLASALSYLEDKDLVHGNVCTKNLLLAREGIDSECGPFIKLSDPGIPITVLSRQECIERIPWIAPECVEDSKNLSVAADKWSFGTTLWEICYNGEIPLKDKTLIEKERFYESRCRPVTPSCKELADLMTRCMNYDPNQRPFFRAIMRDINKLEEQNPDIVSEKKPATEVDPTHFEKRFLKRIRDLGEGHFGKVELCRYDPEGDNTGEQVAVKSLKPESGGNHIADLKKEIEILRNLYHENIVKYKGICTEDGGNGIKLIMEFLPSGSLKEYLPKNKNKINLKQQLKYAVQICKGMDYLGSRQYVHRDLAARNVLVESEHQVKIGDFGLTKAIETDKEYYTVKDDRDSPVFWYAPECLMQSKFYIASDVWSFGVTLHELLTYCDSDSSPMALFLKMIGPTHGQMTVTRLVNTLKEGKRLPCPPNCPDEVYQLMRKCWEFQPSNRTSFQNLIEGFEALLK

[2] = test system: Ba/F3-EPOR-JAK2^V617F cells; test: Ba/F3-EPOR-JAK2^V617F malignancy mouse model; conditions: for spleen suppression rate: 16 days; for median survival time: vehicle 19 days
[3] = BALB/c nude, mouse, brain, oral, 30 mg/kg, repeated, read-out: FM concentration, Brain
[4] = BALB/c nude, mouse, heart, oral, 30 mg/kg, repeated, read-out: FM concentration, Heart
[5] = BALB/c nude, mouse, intestine, oral, 30 mg/kg, repeated, read-out: FM concentration, Intestine
[6] = BALB/c nude, mouse, kidney, oral, 30 mg/kg, repeated, read-out: FM concentration, Kidney
[7] = BALB/c nude, mouse, liver, oral, 30 mg/kg, repeated, read-out: FM concentration, Liver
[8] = BALB/c nude, mouse, lung, oral, 30 mg/kg, repeated, read-out: FM concentration, Lung
[9] = BALB/c nude, mouse, muscle, oral, 30 mg/kg, repeated, read-out: FM concentration, Muscle
[10] = BALB/c nude, mouse, plasma, oral, 30 mg/kg, repeated, read-out: FM concentration, Plasma
[11] = BALB/c nude, mouse, spleen, oral, 30 mg/kg, repeated, read-out: FM concentration, Spleen
[12] = BALB/c nude, mouse, stomach, oral, 30 mg/kg, repeated, read-out: FM concentration, Stomach
[13] = BALB/c nude, mouse, Plasma, repeated oral 30 mg/kg
[14] = BALB/c nude, mouse, Spleen, repeated oral 30 mg/kg

## Cc1cnc(Nc2ccc(N3CCC(N(C)CCO)CC3)c(F)c2)nc1-c1cnn(C(C)C)c1 [FM, 2-((1-(2-fluoro-4-((4-(1-isopropyl-1H-pyrazol-4-yl)-5-methylpyrimidin-2-yl)amino)phenyl)piperidin-4-yl)(methyl)amino)ethan-1-ol]
JAK1/TYK2 pathway
  IC50: > 5000 nM
JAK1/JAK2
  IC50: 460 nM
Ba/F3-JAK2^V617F
  IC50: 0.2 ± 0.01 µM
Ba/F3-EPOR-JAK2^V617F; 72 h, read-out: IC50(μM) ± SD, tumor cell proliferation
  IC50: 0.78 ± 0.21 µM
Ba/F3-EPOR-JAK2^V617F; as quoted in PK/PD text, read-out: IC50 value of Ba/F3-EPOR-JAK2^V617F cells in vitro
  IC50: 0.79 ± 0.01 µM
MV-4-11
  IC50: 0.01 ± 0.01 µM
Molm-13
  IC50: 0.06 ± 0.03 µM
Ba/F3-FLT3-ITD
  IC50: 0.12 ± 0.01 µM
JAK2^V617F; 15 mg/kg bid p.o.
  inhibition of splenomegaly: 97.11%
  median survival time: > 180 days
JAK2^V617F; 30 mg/kg bid p.o.
  inhibition of splenomegaly: 101.62%
  median survival time: > 180 days
JAK2^V617F; 45 mg/kg bid p.o.
  inhibition of splenomegaly: 101.24%
  median survival time: > 180 days
JAK2^V617F; 30 mg/kg
  BM Reticulin, fibrosis grade: non-MF
JAK2^V617F; 45 mg/kg
  BM Reticulin, fibrosis grade: non-MF
[1]; [3]
  concentration at 0 h: 6.3 ± 3.68 ng/g
  concentration at 0.5 h: 283 ± 93.8 ng/g
  concentration at 2 h: 369 ± 113 ng/g
  concentration at 4 h: 492 ± 754 ng/g
[1]; BALB/c nude, mouse, brain, oral, 30 mg/kg, repeated, 8 h, read-out: FM concentration, Brain
  concentration at 8 h: 47 ± 31.3 ng/g
[1]; BALB/c nude, mouse, brain, oral, 30 mg/kg, repeated, 12 h, read-out: FM concentration, Brain
  concentration at 12 h: 10.8 ± 4.65 ng/g
[1]; [4]
  concentration at 0 h: 7.06 ± 1.49 ng/g
  concentration at 0.5 h: 1890 ± 756 ng/g
  concentration at 2 h: 1320 ± 674 ng/g
  concentration at 4 h: 578 ± 356 ng/g
[1]; BALB/c nude, mouse, heart, oral, 30 mg/kg, repeated, 8 h, read-out: FM concentration, Heart
  concentration at 8 h: 357 ± 376 ng/g
[1]; BALB/c nude, mouse, heart, oral, 30 mg/kg, repeated, 12 h, read-out: FM concentration, Heart
  concentration at 12 h: 15.8 ± 11.3 ng/g
[1]; [5]
  concentration at 0 h: 21.4 ± 19.1 ng/g
  concentration at 0.5 h: 31200 ± 12600 ng/g
  concentration at 2 h: 4210 ± 1320 ng/g
  concentration at 4 h: 9610 ± 6020 ng/g
[1]; BALB/c nude, mouse, intestine, oral, 30 mg/kg, repeated, 8 h, read-out: FM concentration, Intestine
  concentration at 8 h: 1380 ± 1370 ng/g
[1]; BALB/c nude, mouse, intestine, oral, 30 mg/kg, repeated, 12 h, read-out: FM concentration, Intestine
  concentration at 12 h: 250 ± 337 ng/g
[1]; [6]
  concentration at 0 h: 16.6 ± 1.41 ng/g
  concentration at 0.5 h: 11800 ± 3010 ng/g
  concentration at 2 h: 7560 ± 1990 ng/g
  concentration at 4 h: 4640 ± 1860 ng/g
[1]; BALB/c nude, mouse, kidney, oral, 30 mg/kg, repeated, 8 h, read-out: FM concentration, Kidney
  concentration at 8 h: 1790 ± 1450 ng/g
[1]; BALB/c nude, mouse, kidney, oral, 30 mg/kg, repeated, 12 h, read-out: FM concentration, Kidney
  concentration at 12 h: 174 ± 121 ng/g
[1]; [7]
  concentration at 0 h: 12.9 ± 3.13 ng/g
  concentration at 0.5 h: 4360 ± 3900 ng/g
  concentration at 2 h: 6420 ± 1260 ng/g
  concentration at 4 h: 6660 ± 5810 ng/g
[1]; BALB/c nude, mouse, liver, oral, 30 mg/kg, repeated, 8 h, read-out: FM concentration, Liver
  concentration at 8 h: 1900 ± 1330 ng/g
[1]; BALB/c nude, mouse, liver, oral, 30 mg/kg, repeated, 12 h, read-out: FM concentration, Liver
  concentration at 12 h: 151 ± 116 ng/g
[1]; [8]
  concentration at 0 h: 18.5 ± 4 ng/g
  concentration at 0.5 h: 11400 ± 1780 ng/g
  concentration at 2 h: 7150 ± 1880 ng/g
  concentration at 4 h: 3890 ± 1470 ng/g
[1]; BALB/c nude, mouse, lung, oral, 30 mg/kg, repeated, 8 h, read-out: FM concentration, Lung
  concentration at 8 h: 1450 ± 1430 ng/g
[1]; BALB/c nude, mouse, lung, oral, 30 mg/kg, repeated, 12 h, read-out: FM concentration, Lung
  concentration at 12 h: 132 ± 76.7 ng/g
[1]; [9]
  concentration at 0 h: 18.6 ± 11.7 ng/g
  concentration at 0.5 h: 415 ± 435 ng/g
  concentration at 2 h: 275 ± 158 ng/g
  concentration at 4 h: 181 ± 120 ng/g
[1]; BALB/c nude, mouse, muscle, oral, 30 mg/kg, repeated, 8 h, read-out: FM concentration, Muscle
  concentration at 8 h: 85 ± 73.1 ng/g
[1]; BALB/c nude, mouse, muscle, oral, 30 mg/kg, repeated, 12 h, read-out: FM concentration, Muscle
  concentration at 12 h: 13.3 ± 6.38 ng/g
[1]; [10]
  concentration at 0 h: 5.6 ± 1.53 ng/mL
  concentration at 0.25 h: 628 ± 144 ng/mL
  concentration at 0.5 h: 889 ± 238 ng/mL
  concentration at 1 h: 1040 ± 375 ng/mL
  concentration at 2 h: 638 ± 168 ng/mL
  concentration at 4 h: 292 ± 101 ng/mL
[1]; BALB/c nude, mouse, plasma, oral, 30 mg/kg, repeated, 8 h, read-out: FM concentration, Plasma
  concentration at 8 h: 106 ± 84.1 ng/mL
[1]; BALB/c nude, mouse, plasma, oral, 30 mg/kg, repeated, 12 h, read-out: FM concentration, Plasma
  concentration at 12 h: 19.3 ± 12.9 ng/mL
[1]; BALB/c nude, mouse, plasma, oral, 30 mg/kg, repeated, 24 h, read-out: FM concentration, Plasma
  concentration at 24 h: 5.56 ± 4.97 ng/mL
[1]; BALB/c nude, mouse, 30 mg/kg, AUC(0–24h) of spleen higher than that of plasma, repeated oral 30 mg/kg
  Kp: 17.9
[1]; BALB/c nude, mouse, 30 mg/kg, repeated oral 30 mg/kg, read-out: Cmax of spleen higher than that of plasma
  Kp: 14.1
[1]; [11]
  concentration at 0 h: 69 ± 44.8 ng/g
  concentration at 0.25 h: 3700 ± 1440 ng/g
  concentration at 0.5 h: 12100 ± 1910 ng/g
  concentration at 1 h: 17100 ± 6420 ng/g
  concentration at 2 h: 12200 ± 4390 ng/g
  concentration at 4 h: 6180 ± 1680 ng/g
[1]; BALB/c nude, mouse, spleen, oral, 30 mg/kg, repeated, 8 h after the last administration, read-out: FM concentration, Spleen
  concentration at 8 h: 2150 ± 1390 ng/g
[1]; BALB/c nude, mouse, spleen, oral, 30 mg/kg, repeated, 12 h after the last administration, read-out: FM concentration, Spleen
  concentration at 12 h: 391 ± 181 ng/g
[1]; [12]
  concentration at 0 h: 71.8 ± 44.3 ng/g
  concentration at 0.5 h: 33100 ± 22700 ng/g
  concentration at 2 h: 19300 ± 20700 ng/g
  concentration at 4 h: 11700 ± 8600 ng/g
[1]; BALB/c nude, mouse, stomach, oral, 30 mg/kg, repeated, 8 h, read-out: FM concentration, Stomach
  concentration at 8 h: 3500 ± 5190 ng/g
[1]; BALB/c nude, mouse, stomach, oral, 30 mg/kg, repeated, 12 h, read-out: FM concentration, Stomach
  concentration at 12 h: 2490 ± 2530 ng/g
[1]; [13]
  Cmax: 1280 ± 455 ng/mL
  half-life: 2.85 ± 1.14 h
[1]; BALB/c nude, mouse, Plasma, repeated oral 30 mg/kg, read-out: AUC0–24 h
  AUC(0-t): 3740 ± 704 ng·h/mL
[1]; [14]
  Cmax: 18100 ± 5680 ng/g
  half-life: 2.37 ± 0.58 h
[1]; Plasma, repeated oral 30 mg/kg
  Cl: 137 ± 31.8 mL/min/kg
  Vdss: 32.81 ± 11.21 L/kg
[1]; Spleen, repeated oral 30 mg/kg
  AUC0–24 h: 67200.44 ± 11858.88 ng^.h/mL
CD34^+ cells
  CD34^+ cells in peripheral blood: significantly inhibited
JAK1
  IC50: 690 nM
[2]; 15 mg/kg bid p.o.
  spleen suppression rate: -35.67%
  median survival time: 22 days
[2]; 30 mg/kg bid p.o.
  spleen suppression rate: -79.79%
  median survival time: 25 days
[2]; 45 mg/kg bid p.o.
  spleen suppression rate: -101.08%
  median survival time: 25 days
[2]; data not shown
  visceral toxicity, tissues of treated mice: did not cause obvious visceral toxicity
